According to patent publication US9663519B2, “Compounds useful as inhibitors of ATR kinase” (Vertex Pharmaceuticals Incorporated, priority 2013, dated 2017):

Experiments:
full-length ATR = full-length ATR (Homo sapiens (Human), UniProt Q13535); assay: ATR Inhibition Assay (radioactive-phosphate incorporation); assay type: biochemical; conditions: Ki(app); 5 nM full-length ATR, 10 μM ATP, 25° C.
Description: Compounds were screened for their ability to inhibit ATR kinase using a radioactive-phosphate incorporation assay. Assays were carried out in a mixture of 50 mM Tris/HCl (pH 7.5), 10 mM MgCl2 and 1 mM DTT. Final substrate concentrations were 10 μM [γ-33P]ATP (3 mCi 33P ATP/mmol ATP, Perkin Elmer) and 800 μM target peptide (ASELPASQPQPFSAKKK (SEQ. ID NO: 1)).
Assays were carried out at 25° C. in the presence of 5 nM full-length ATR. An assay stock buffer solution was prepared containing all of the reagents listed above, with the exception of ATP and the test compound of interest. 13.5 μL of the stock solution was placed in a 96 well plate followed by addition of 2 μL of DMSO stock containing serial dilutions of the test compound (typically starting from a final concentration of 15 μM with 3-fold serial dilutions) in duplicate (final DMSO concentration 7%). The plate was pre-incubated for 10 minutes at 25° C. and the reaction initiated by addition of 15 μL [γ-33P]ATP (final concentration 10 μM).
The reaction was stopped after […] by the addition of 30 μL 0.1M phosphoric acid containing 2 mM ATP. A multiscreen phosphocellulose filter 96-well plate (Millipore, Cat no. MAPHN0B50) was pretreated with 100 μL 0.2M phosphoric acid prior to the addition of 45 μL of the stopped assay mixture. The plate was washed with 5×200 μL 0.2M phosphoric acid. After drying, 100 μL Optiphase ‘SuperMix’ liquid scintillation cocktail (Perkin Elmer) was added to the well prior to scintillation counting (1450 Microbeta Liquid Scintillation Counter, Wallac).
After removing mean background values for all of the data points, Ki(app) data were calculated from non-linear regression analysis of the initial rate data using the Prism software package (GraphPad Prism version 3.0cx for Macintosh, GraphPad Software, San Diego Calif., USA).

[1] = tested on: HCT116 colorectal cancer cells; assay: Cisplatin Sensitization Assay (96 h cell viability MTS); assay type: cell-based; conditions: Cisplatin sensitization value: concentration of compound required to reduce the IC50 of Cisplatin alone by at least 3-fold; HCT116, 96 h MTS
Description: Compounds can be screened for their ability to sensitize HCT116 colorectal cancer cells to Cisplatin using a 96 h cell viability (MTS) assay. […] Compounds and Cisplatin are then both added simultaneously to the cell media in 2-fold serial dilutions from a top final concentration of 10 μM as a full matrix of concentrations in a final cell volume of 200 μl, and the cells are then incubated at 37° C. in 5% CO2. After 96 h, 40 μl of MTS reagent (Promega G358a) is added to each well and the cells are incubated for 1 h at 37° C. in 5% CO2. Finally, absorbance is measured at 490 nm using a SpectraMax Plus 384 reader (Molecular Devices) and the concentration of compound required to reduce the IC50 of Cisplatin alone by at least 3-fold (to 1 decimal place) can be reported.

Chain of full-length ATR (Q13535 whole entry): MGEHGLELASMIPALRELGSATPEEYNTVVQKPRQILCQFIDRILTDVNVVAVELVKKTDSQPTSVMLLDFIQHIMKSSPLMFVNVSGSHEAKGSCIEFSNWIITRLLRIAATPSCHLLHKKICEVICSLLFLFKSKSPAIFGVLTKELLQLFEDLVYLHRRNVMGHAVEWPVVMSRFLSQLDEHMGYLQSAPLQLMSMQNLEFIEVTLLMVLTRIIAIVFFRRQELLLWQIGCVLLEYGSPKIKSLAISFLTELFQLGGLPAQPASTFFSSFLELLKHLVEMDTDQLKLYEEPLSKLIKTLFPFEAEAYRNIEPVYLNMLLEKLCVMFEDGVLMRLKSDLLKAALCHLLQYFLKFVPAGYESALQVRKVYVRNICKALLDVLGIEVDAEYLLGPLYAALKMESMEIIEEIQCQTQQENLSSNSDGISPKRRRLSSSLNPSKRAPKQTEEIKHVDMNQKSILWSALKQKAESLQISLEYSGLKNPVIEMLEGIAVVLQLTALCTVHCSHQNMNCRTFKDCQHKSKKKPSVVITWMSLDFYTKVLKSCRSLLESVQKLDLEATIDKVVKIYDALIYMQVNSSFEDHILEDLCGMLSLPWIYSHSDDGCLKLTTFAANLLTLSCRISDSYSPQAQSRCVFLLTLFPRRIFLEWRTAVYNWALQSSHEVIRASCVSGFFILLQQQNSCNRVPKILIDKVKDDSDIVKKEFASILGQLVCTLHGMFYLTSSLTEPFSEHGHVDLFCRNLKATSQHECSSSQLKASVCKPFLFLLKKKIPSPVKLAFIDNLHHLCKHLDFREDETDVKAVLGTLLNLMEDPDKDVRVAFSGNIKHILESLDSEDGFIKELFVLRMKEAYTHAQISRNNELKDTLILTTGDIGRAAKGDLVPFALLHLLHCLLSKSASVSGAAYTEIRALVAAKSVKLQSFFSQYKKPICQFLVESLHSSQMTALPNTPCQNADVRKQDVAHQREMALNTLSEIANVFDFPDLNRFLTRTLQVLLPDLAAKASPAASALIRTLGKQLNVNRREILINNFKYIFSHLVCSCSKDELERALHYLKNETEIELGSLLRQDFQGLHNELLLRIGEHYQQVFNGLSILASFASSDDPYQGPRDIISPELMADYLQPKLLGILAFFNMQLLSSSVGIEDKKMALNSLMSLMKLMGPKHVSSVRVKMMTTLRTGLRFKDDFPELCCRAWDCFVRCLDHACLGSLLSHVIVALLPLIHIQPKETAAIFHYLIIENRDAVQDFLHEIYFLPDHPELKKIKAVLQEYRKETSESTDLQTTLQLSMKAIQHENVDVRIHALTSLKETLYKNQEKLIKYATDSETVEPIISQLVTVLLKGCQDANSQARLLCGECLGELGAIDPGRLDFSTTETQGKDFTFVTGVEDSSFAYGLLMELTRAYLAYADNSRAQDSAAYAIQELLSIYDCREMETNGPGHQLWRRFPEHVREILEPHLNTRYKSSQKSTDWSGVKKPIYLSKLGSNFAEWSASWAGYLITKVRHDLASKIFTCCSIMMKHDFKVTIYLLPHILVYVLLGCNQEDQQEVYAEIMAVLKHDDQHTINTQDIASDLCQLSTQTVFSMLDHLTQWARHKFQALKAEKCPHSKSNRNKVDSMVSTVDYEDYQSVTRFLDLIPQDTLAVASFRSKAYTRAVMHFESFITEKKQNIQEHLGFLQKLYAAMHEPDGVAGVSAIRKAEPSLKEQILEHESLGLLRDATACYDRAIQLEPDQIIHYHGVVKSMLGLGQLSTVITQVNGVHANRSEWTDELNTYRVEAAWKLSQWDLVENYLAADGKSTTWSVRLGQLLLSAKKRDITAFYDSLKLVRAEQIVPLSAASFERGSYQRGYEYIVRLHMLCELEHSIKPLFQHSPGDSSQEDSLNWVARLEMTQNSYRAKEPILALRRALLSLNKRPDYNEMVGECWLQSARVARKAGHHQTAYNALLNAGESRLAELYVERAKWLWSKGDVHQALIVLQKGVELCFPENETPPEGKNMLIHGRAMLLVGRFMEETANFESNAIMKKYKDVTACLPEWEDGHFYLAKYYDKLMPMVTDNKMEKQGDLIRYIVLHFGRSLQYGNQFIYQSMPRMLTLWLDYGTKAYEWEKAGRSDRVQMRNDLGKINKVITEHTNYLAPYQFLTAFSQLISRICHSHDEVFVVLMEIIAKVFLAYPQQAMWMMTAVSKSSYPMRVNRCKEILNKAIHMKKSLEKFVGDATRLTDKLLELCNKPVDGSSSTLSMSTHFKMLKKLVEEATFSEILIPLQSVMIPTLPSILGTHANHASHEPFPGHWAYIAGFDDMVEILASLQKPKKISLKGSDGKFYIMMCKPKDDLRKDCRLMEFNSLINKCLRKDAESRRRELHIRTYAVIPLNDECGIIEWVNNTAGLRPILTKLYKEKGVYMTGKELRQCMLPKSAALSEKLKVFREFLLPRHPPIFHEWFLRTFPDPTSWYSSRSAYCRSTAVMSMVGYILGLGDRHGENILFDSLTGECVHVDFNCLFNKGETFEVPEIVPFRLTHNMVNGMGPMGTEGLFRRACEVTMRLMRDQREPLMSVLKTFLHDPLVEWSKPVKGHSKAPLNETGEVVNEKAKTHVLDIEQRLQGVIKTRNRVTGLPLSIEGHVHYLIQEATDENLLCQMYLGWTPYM

Ki (full-length ATR) [nM] | Structure (SMILES) | Synergy with Cisplatin [1]
10 to 1000 | COc1ccncc1NC(=O)c1c(N)nn2cc3c(nc12)CCN(C(C)C)C3 [Compound I-17, 2-amino-7-isopropyl-N-(4-methoxypyridin-3-yl)-5,6,7,8-tetrahydropyrazolo[1,5-a]pyrido[4,3-d]pyrimidine-3-carboxamide] | ++ (Cisplatin sensitization value >0.02 μM but <0.2 μM)
10 to 1000 | Cc1nsc(NC(=O)c2c(N)nn3cc4c(nc23)CCN(C2COC2)C4)c1C1CC1 [Compound I-33, 2-amino-N-(4-cyclopropyl-3-methylisothiazol-5-yl)-7-(oxetan-3-yl)-5,6,7,8-tetrahydropyrazolo[1,5-a]pyrido[4,3-d]pyrimidine-3-carboxamide] | +++ (Cisplatin sensitization value of <0.02 μM)
10 to 1000 | COc1c(Cl)cncc1NC(=O)c1c(N)nn2cc3c(nc12)CCNC3 [Compound I-5, 2-amino-N-(5-chloro-4-methoxypyridin-3-yl)-5,6,7,8-tetrahydropyrazolo[1,5-a]pyrido[4,3-d]pyrimidine-3-carboxamide] | ++ (Cisplatin sensitization value >0.02 μM but <0.2 μM)
10 to 1000 | CN1CCc2nc3c(C(=O)Nc4cnccc4C4CC4)c(N)nn3cc2C1 [Compound I-11, 2-amino-N-(4-cyclopropylpyridin-3-yl)-7-methyl-5,6,7,8-tetrahydropyrazolo[1,5-a]pyrido[4,3-d]pyrimidine-3-carboxamide] | +++ (Cisplatin sensitization value of <0.02 μM)
10 to 1000 | CC(C)Oc1ncncc1NC(=O)c1c(N)nn2cc3c(nc12)CCNC3 [Compound I-10, 2-amino-N-(4-isopropoxypyrimidin-5-yl)-5,6,7,8-tetrahydropyrazolo[1,5-a]pyrido[4,3-d]pyrimidine-3-carboxamide] | ++ (Cisplatin sensitization value >0.02 μM but <0.2 μM)
10 to 1000 | COc1cc(Cl)ncc1NC(=O)c1c(N)nn2cc3c(nc12)CCN(C)C3 [Compound I-7, 2-amino-N-(6-chloro-4-methoxypyridin-3-yl)-7-methyl-5,6,7,8-tetrahydropyrazolo[1,5-a]pyrido[4,3-d]pyrimidine-3-carboxamide] | ++ (Cisplatin sensitization value >0.02 μM but <0.2 μM)
10 to 1000 | Nc1nn2cc3c(nc2c1C(=O)Nc1cnccc1OC1CCOCC1)CCNC3 [Compound I-8, 2-amino-N-(4-((tetrahydro-2H-pyran-4-yl)oxy)pyridin-3-yl)-5,6,7,8-tetrahydropyrazolo[1,5-a]pyrido[4,3-d]pyrimidine-3-carboxamide] | ++ (Cisplatin sensitization value >0.02 μM but <0.2 μM)
10 to 1000 | COc1ccncc1NC(=O)c1c(N)nn2cc3c(nc12)CCNC3 [Compound I-2, 2-amino-N-(4-methoxypyridin-3-yl)-5,6,7,8-tetrahydropyrazolo[1,5-a]pyrido[4,3-d]pyrimidine-3-carboxamide] | ++ (Cisplatin sensitization value >0.02 μM but <0.2 μM)
10 to 1000 | Cc1ccncc1NC(=O)c1c(N)nn2cc3c(nc12)CCNC3 [Compound I-1, 2-amino-N-(4-methylpyridin-3-yl)-5,6,7,8-tetrahydropyrazolo[1,5-a]pyrido[4,3-d]pyrimidine-3-carboxamide] | ++ (Cisplatin sensitization value >0.02 μM but <0.2 μM)
10 to 1000 | COc1ccncc1NC(=O)c1c(N)nn2cc3c(nc12)CCN(C1COC1)C3 [Compound I-24, 2-amino-N-(4-methoxypyridin-3-yl)-7-(oxetan-3-yl)-5,6,7,8-tetrahydropyrazolo[1,5-a]pyrido[4,3-d]pyrimidine-3-carboxamide] | ++ (Cisplatin sensitization value >0.02 μM but <0.2 μM)
10 to 1000 | CN1CCc2nc3c(C(=O)Nc4cnccc4OC4COC4)c(N)nn3cc2C1 [Compound I-14, 2-amino-7-methyl-N-(4-(oxetan-3-yloxy)pyridin-3-yl)-5,6,7,8-tetrahydropyrazolo[1,5-a]pyrido[4,3-d]pyrimidine-3-carboxamide] | ++ (Cisplatin sensitization value >0.02 μM but <0.2 μM)
